Columns and labels:
[1] = system: Staphylococcus aureus; test: Antimicrobial activity against Staphylococcus aureus 8325 incubated for 12 hrs by agar diffusion method; assay type: functional
[2] = system: Bacillus subtilis; test: Antimicrobial activity against Bacillus subtilis incubated for 12 hrs by agar diffusion method; assay type: functional
[3] = system: Pseudomonas aeruginosa; test: Antimicrobial activity against Pseudomonas aeruginosa PAO1 incubated for 12 hrs by agar diffusion method; assay type: functional
[4] = system: Candida albicans; test: Antimicrobial activity against Candida albicans IBT 656 incubated for 24 hrs by broth dilution method; assay type: functional
[5] = system: LNCaP; test: Cytotoxicity against human LNCaP cells assessed as inhibition of cell growth incubated for 72 hrs by CellTox Green cytotoxicity assay; assay type: functional, cell-based
[6] = system: LNCaP C4-2B; test: Cytotoxicity against human LNCaP C4-2B cells assessed as inhibition of cell growth incubated for 72 hrs by CellTox Green cytotoxicity assay; assay type: functional, cell-based
[7] = system: LNCaP; test: Cytotoxicity against drug resistant human LNCaP cells assessed as inhibition of cell growth incubated for 72 hrs by CellTox Green cytotoxicity assay; assay type: functional, cell-based
[8] = system: LNCaP C4-2B; test: Cytotoxicity against drug resistant human LNCaP C4-2B cells assessed as inhibition of cell growth incubated for 72 hrs by CellTox Green cytotoxicity assay; assay type: functional, cell-based

| MIC [1] [µg/mL] | MIC [2] [µg/mL] | MIC [3] [µg/mL] | MIC [4] [µg/mL] | Compound | IC50 [5] [µM] | IC50 [6] [µM] | IC50 [7] [µM] | IC50 [8] [µM] |
| --- | --- | --- | --- | --- | --- | --- | --- | --- |
| > 50 | > 50 | > 50 | > 50 | CCC/C=C\c1ccccc1/C=C/C(=O)N[C@H](Cc1ccc(O)cc1)C(=O)N(C)[C@@H](Cc1ccc(OC)c(O)c1)C(=O)N(C)[C@@H](Cc1ccccc1)C(=O)OC[C@H]1NC(=O)CNC1=O | > 10 | > 10 | > 10 | > 10 |
| > 50 | > 50 | > 50 | > 50 | CCC/C=C\c1ccccc1/C=C/C(=O)N[C@H](Cc1ccc(O)cc1)C(=O)N(C)[C@@H](Cc1ccc(OC)c(O)c1)C(=O)N(C)[C@@H](Cc1ccccc1)C(=O)O |  |  |  |  |
| > 50 | > 50 | > 50 | > 50 | CCC/C=C\c1ccccc1/C=C/C(=O)N[C@H](Cc1ccc(O)cc1)C(=O)N(C)[C@@H](Cc1ccc(OC)c(O)c1Cl)C(=O)N(C)[C@@H](Cc1ccccc1)C(=O)OC[C@H]1NC(=O)CNC1=O | > 10 | > 10 | > 10 | > 10 |
| > 50 | > 50 | > 50 | > 50 | CCC/C=C\c1ccccc1/C=C/C(=O)N[C@H](Cc1ccc(O)cc1)C(=O)N(C)[C@@H](Cc1ccc(OC)c(O)c1Cl)C(=O)N(C)[C@@H](Cc1ccccc1)C(=O)O | > 10 | > 10 | > 10 | > 10 |

Source: ChEMBL document CHEMBL5385954, “Pepticinnamins N, O, and P, Nonribosomal Peptides from the Soil-Derived Streptomyces mirabilis P8-A2” (J Nat Prod, 2024)
